Measurements as given in publication PMC11477289, “Low-Basicity 5-HT6 Receptor Ligands from the Group of Cyclic Arylguanidine Derivatives and Their Antiproliferative Activity Evaluation” (International Journal of Molecular Sciences, 2024).
Read-outs that look alike come from different tables or passages of the source.

Assays:
[1] = molecular target: T1, human 5-HT6 (Homo sapiens, UniProt P50406); assay: [3H]-LSD radioligand binding assay, 5-HT6R; conditions: HEK293 expressing human 5-HT6R
T1 construct: expressed in transfected cells
T1 sequence (P50406 whole entry): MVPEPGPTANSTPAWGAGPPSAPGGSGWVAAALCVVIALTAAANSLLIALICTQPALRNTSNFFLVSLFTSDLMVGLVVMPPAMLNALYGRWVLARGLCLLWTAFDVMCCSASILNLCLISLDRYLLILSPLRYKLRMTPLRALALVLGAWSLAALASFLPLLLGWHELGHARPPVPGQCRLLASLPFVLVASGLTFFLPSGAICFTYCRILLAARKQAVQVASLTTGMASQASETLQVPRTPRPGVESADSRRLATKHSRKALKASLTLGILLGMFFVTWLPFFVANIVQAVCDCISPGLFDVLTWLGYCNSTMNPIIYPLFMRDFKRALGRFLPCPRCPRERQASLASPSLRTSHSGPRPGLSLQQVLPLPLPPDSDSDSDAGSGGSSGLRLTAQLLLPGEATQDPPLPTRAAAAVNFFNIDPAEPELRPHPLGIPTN
Procedure: Next, the ligands’ affinity for the 5-HT6 receptors was evaluated in the [^3H]-LSD radioligand binding assay. Experiments were performed in a stable HEK293 cell line expressing the human 5-HT6R.
The pellets were stored at −80 °C.

[2] = Chromatographic hydrophobicity index on C18 column (lipophilicity); type: physicochemical
[3] = Affinity to phospholipids, IAM column (CHI IAM); type: physicochemical; conditions: IAM.PC.DD2 column, pH 7.4
[4] = molecular target: human serum albumin (HSA) (Homo sapiens, UniProt P02768); assay: Binding to HSA, Chiralpak HSA column
Sequence of human serum albumin (HSA) (P02768 25-609): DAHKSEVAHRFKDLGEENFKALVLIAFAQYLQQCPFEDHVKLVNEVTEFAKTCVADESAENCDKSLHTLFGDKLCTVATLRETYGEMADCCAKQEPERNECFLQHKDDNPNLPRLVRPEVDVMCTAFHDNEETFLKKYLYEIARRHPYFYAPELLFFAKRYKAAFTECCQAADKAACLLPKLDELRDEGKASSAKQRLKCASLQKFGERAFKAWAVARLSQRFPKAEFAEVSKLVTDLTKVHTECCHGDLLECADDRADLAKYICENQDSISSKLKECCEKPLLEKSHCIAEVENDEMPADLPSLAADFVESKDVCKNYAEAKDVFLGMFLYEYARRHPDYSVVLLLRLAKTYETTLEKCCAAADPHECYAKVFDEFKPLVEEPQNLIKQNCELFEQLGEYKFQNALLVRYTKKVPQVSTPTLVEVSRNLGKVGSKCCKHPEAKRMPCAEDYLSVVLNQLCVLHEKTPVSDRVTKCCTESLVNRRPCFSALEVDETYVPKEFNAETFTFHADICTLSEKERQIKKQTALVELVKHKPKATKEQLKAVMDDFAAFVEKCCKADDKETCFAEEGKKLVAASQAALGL
From the text: We began with an assay for lipophilicity, affinity for phospholipids (for 40 compounds), and drug binding to human serum albumin (HSA) (for 20 compounds), using chromatographic protocols developed by Valko [46] and implemented in our laboratory. Compounds with the highest affinity for 5-HT6R and those showing the most promising ADMET parameters, including the possibility of BBB penetration, DDI, and lipophilicity, determined in silico in SwissADME [45], were selected for testing. These methods allowed the determination of chromatographic hydrophobicity indices (CHIs), binding to HSA (%HSA), and phospholipids (CHIIAM) using a single-gradient elution experiment and comparison to reference substances.
The use of columns modified with plasma proteins, such as HSA, also allows for the estimation of binding to HSA, which is the most dominant plasma protein (PP). Binding to PP affects drug pharmacokinetics, such as distribution, half-life, and clearance.
The mobile phase flow rate was 1.5 mL/min, and the column was maintained at 30 °C. • Chiralpak® HSA (50 mm × 4 mm; 5 µm with safety guard column; Daicel Chiral Technologies, West Chester, PA, USA), mobile phase A: 50 mM ammonium acetate, mobile phase B: HPLC-grade isopropanol (VWR International, Leuven, Belgium). For the first 15 min, the linear gradient from 0 to 20% isopropanol was applied and then held at 20% isopropanol for 12 min. In the last 5 min of the sequence, the mobile phase mixture received a pure ammonium acetate solution. The column temperature was held at 30 °C, whereas the flow rate was 0.9 mL/min.
The reference substances for the calibration of HSA, C18, and IAM columns were purchased, respectively: acetanilide, butyrophenone, diclofenac, and octanonophenone (Alfa Aesar, Haverhill, MA, USA); acetophenone, benzimidazole, colchicine, indole, indometacin, paracetamol, and theophylline (Sigma-Aldrich, Steinheim, Germany); nicardipine and nizatidine (Cayman Chemical, Ann Arbor, MI, USA); carbamazepine, heptanophenone, hexanophenone, propiophenone, and valerophenone (Acros Organic, Pittsburg, PA, USA). Before chromatographic experiments, solutes were dissolved in dimethyl sulfoxide (Avantor Performance Materials Poland S.A., Gliwice, Poland) to obtain a 200 µg/mL concentration. The detection was performed in the UV region at the wavelength from 190 nm to 300 nm. The injected volume was 5 μL, and each compound was analyzed in triplicate.

[5] = test system: U87MG glioblastoma cells; assay: Antiproliferative activity (MTS), U87MG; conditions: Homo sapiens, U-87 MG, 72 h, read-out: IC50 Values U87MG
[6] = test system: 1321N1 astrocytoma cell line; assay: Antiproliferative activity (MTS), 1321N1; conditions: Homo sapiens, 1321-N1, 72 h, read-out: IC50 Values 1321N1

| Ki ([1]; read-out: 5-HT6 Ki) | CHI C18 pH 2.6 [2] | CHI C18 pH 7.4 [2] | CHI C18 pH 10.5 [2] | CHI IAM [3] | %HSA ([4]; Chiralpak HSA column) | logKHSA ([4]; Chiralpak HSA column) | melting point | IC50 [5] | IC50 [6] | %HSA [4] | SMILES | Ki ([1]; 5-HT6 Ki) |
| --- | --- | --- | --- | --- | --- | --- | --- | --- | --- | --- | --- | --- |
| 210 ± 48 nM | 95.8 | 93.1 | 96.2 | 42.9 | 97.1% | 1.4 | 241 to 244 °C | > 25000 nM | > 25000 nM |  | O=S(=O)(NC1=Nc2ccccc2CN1)c1c(Cl)ccc2ccccc12 [PR 41, 2-chloro-N-(3,4-dihydroquinazolin-2-yl)naphthalene-1-sulfonamide] |  |
| 268 ± 63 nM | 100.1 | 99.2 | 101.6 | 45.5 | 97.9% | 1.5 | 188 to 191 °C | > 25000 nM | > 25000 nM |  | O=S(=O)(NC1=Nc2ccccc2CN1)c1ccc(Cl)c2ccccc12 [PR 42, 4-chloro-N-(3,4-dihydroquinazolin-2-yl)naphthalene-1-sulfonamide] |  |
|  | 46.7 | 101.2 | 79.0 | 39.3 | 76.9% | 0.51 |  |  |  |  | CN1CCN2c3ncccc3Cc3ccccc3C2C1 (stereo not shown) [Mirtazapine, reference compound] |  |
| 381 ± 88 nM | 90.8 | 89.4 | 92.4 | 40.8 | 96.4% | 1.3 | 191 to 193 °C | > 25000 nM | > 25000 nM |  | O=S(=O)(NC1=Nc2cccc(F)c2CN1)c1cccc2ccccc12 [PR 54, N -(5-fluoro-3,4-dihydroquinazolin-2-yl)naphthalene-1-sulfonamide] |  |
|  | 59.4 | 108.6 | 98.7 | 44.2 | 90.9% | 0.95 |  |  |  |  | CN1CCN2c3ccccc3Cc3ccccc3C2C1 (stereo not shown) [Mianserin, reference compound] |  |
| 9850 ± 2460 nM | 94.2 | 93.2 | 95.0 | 38.7 | 93.7% | 1.1 | 161 to 163 °C | > 25000 nM | > 25000 nM |  | O=S(=O)(NC1=Nc2ccccc2CN1)c1ccc(OC(F)(F)F)cc1 [PR 17, N -(3,4-dihydroquinazolin-2-yl)-4-(trifluoromethoxy)benzene-1-sulfonamide] |  |
|  | 65.9 | 112.0 | 116.3 | 47.0 |  | 0.87 |  |  |  | 88.9% | CN(C)CCC=C1c2ccccc2CCc2ccccc21 [Amitriptyline, reference compound] |  |
| 236 ± 58 nM |  |  |  |  |  |  | 169 to 174 °C | > 25000 nM | > 25000 nM |  | CC1NC(NS(=O)(=O)c2cccc3ccccc23)=Nc2ccccc21 (stereo not shown) [PR 67, N -(4-methyl-3,4-dihydroquinazolin-2-yl)naphthalene-1-sulfonamide] |  |
| 2170 ± 538 nM | 99.7 | 97.4 | 100.6 | 46.0 |  |  | 202 to 204 °C |  |  |  | O=S(=O)(NC1=Nc2cccc(Cl)c2CN1)c1ccc2ccccc2c1 [PR 31, N -(5-chloro-3,4-dihydroquinazolin-2-yl)naphthalene-2-sulfonamide] |  |
| 412 ± 95 nM | 93.1 | 91.8 | 94.2 | 41.4 | 97.3% | 1.4 | 233 to 237 °C | > 25000 nM | > 25000 nM |  | Cc1cccc2c1CNC(NS(=O)(=O)c1cccc3ccccc13)=N2 [PR 61, N -(5-methyl-3,4-dihydroquinazolin-2-yl)naphthalene-1-sulfonamide] |  |
| 1960 ± 452 nM | 84.9 | 85.0 | 88.4 | 38.2 |  |  | 263 to 266 °C |  |  |  | COc1ccc2c(c1)CNC(NS(=O)(=O)c1cccc3ccccc13)=N2 [PR 59, N -(6-methoxy-3,4-dihydroquinazolin-2-yl)naphthalene-1-sulfonamide] |  |
| 1960 ± 434 nM | 98.3 | 96.4 | 99.9 | 44.9 |  |  | 220 to 222 °C |  |  |  | O=S(=O)(NC1=Nc2cc(Cl)ccc2CN1)c1ccc2ccccc2c1 [PR 33, N -(7-chloro-3,4-dihydroquinazolin-2-yl)naphthalene-2-sulfonamide] |  |
| 2220 ± 534 nM | 101.0 | 100.1 | 102.6 | 46.1 |  |  | 167 to 171 °C |  |  |  | CC1NC(NS(=O)(=O)c2ccc3ccccc3c2)=Nc2cc(Cl)ccc21 (stereo not shown) [PR 37, N -(7-chloro-4-methyl-3,4-dihydroquinazolin-2-yl)naphthalene-2-sulfonamide] |  |
| 160 ± 36 nM |  |  |  |  |  |  |  | > 25000 nM | > 25000 nM |  | O=S(=O)(NC1=Nc2cccc(Cl)c2CN1)c1cccc2ccccc12 [PR 46, N -(5-chloro-3,4-dihydroquinazolin-2-yl)naphthalene-1-sulfonamide] |  |
|  |  |  |  |  |  |  |  |  | 1100 nM |  | COc1cccc2c1C(=O)c1c(O)c3c(c(O)c1C2=O)C[C@@](O)(C(=O)CO)C[C@@H]3O[C@H]1C[C@H](N)[C@H](O)[C@H](C)O1 [Doxorubicin, reference compound] |  |
| 876 ± 201 nM | 91.0 | 89.0 | 95.4 | 40.5 |  |  | 222 to 226 °C |  |  |  | O=S(=O)(NC1=Nc2cc(F)ccc2CN1)c1cccc2ccccc12 [PR 56, N -(7-fluoro-3,4-dihydroquinazolin-2-yl)naphthalene-1-sulfonamide] |  |
| 258 ± 46 nM |  |  |  |  |  |  | 185 to 191 °C | > 25000 nM | > 25000 nM |  | O=S(=O)(NC1=Nc2ccccc2CN1)c1cccc2c(Cl)cccc12 [PR 43, 5-chloro-N-(3,4-dihydroquinazolin-2-yl)naphthalene-1-sulfonamide] |  |
| 4640 ± 1160 nM | 82.8 | 81.0 | 83.0 | 35.3 |  |  | 157 to 165 °C |  |  |  | COc1ccc(Cl)cc1S(=O)(=O)NC1=Nc2ccccc2CN1 [PR 25, 5-chloro-N-(3,4-dihydroquinazolin-2-yl)-2-methoxybenzene-1-sulfonamide] |  |
| 1410 ± 326 nM | 88.2 | 87.0 | 90.3 | 39.2 |  |  | 213 to 217 °C |  |  |  | COc1ccc2c(c1)N=C(NS(=O)(=O)c1cccc3ccccc13)NC2 [PR 60, N -(7-methoxy-3,4-dihydroquinazolin-2-yl)naphthalene-1-sulfonamide] |  |

| SMILES | Ki ([1]; read-out: 5-HT6 Ki) | CHI C18 pH 2.6 [2] | CHI C18 pH 7.4 [2] | CHI C18 pH 10.5 [2] | CHI IAM [3] | %HSA ([4]; Chiralpak HSA column) | logKHSA ([4]; Chiralpak HSA column) | melting point | IC50 [5] | IC50 [6] | %HSA [4] | Ki ([1]; 5-HT6 Ki) |
| --- | --- | --- | --- | --- | --- | --- | --- | --- | --- | --- | --- | --- |
| Nc1nc2ccccc2n1S(=O)(=O)c1csc2ccccc12 [PR 8, 1-(1-benzothiophene-3-sulfonyl)-1H-1,3-benzodiazol-2-amine] |  | 89.8 | 90.3 | 91.0 | 40.3 |  |  | 192 to 195 °C |  |  |  | 133 ± 33 nM |
| COc1ccc(C(CN(C)C)C2(O)CCCCC2)cc1 (stereo not shown) [Venlafaxine, reference compound] |  | 53.5 | 82.2 | 92.9 | 29.9 |  | -0.55 |  |  |  |  |  |
